How the values were obtained:
Experiment in all cases: relative viability (nuclei count vs DMSO), 5 days (fraction); higher = more cells survive
[1] = compound: O=C(C[C@H]1NCCC[C@@H]1O)Cn1cnc2cc(Br)c(Cl)cc2c1=O (racemic) [Halofuginone] + C[C@]1(O)C[C@@H](c2nc(-c3ccc4ccc(-c5ccccc5)nc4c3)c3c(N)nccn32)C1 [Linsitinib] (partner 1 µM)
Method in brief: (§1)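 Lung cancer cell lines in 1536-well plates got either a single drug or a fixed anchor-drug dose together with five library-drug doses (not always all listed) in √10 steps, by pin tool, on the day after seeding. Nuclei were counted after 5 days, and relative viability is the treated-to-vehicle ratio of nuclei counts. Values are medians of duplicate plates.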

Decitabine + Lapatinib = compound: Nc1ncn([C@H]2C[C@H](O)[C@@H](CO)O2)c(=O)n1 [Decitabine] + CS(=O)(=O)CCNCc1ccc(-c2ccc3ncnc(Nc4ccc(OCc5cccc(F)c5)c(Cl)c4)c3c2)o1 [Lapatinib] (partner 2 µM)
Method in brief: as §1

Cediranib + Alpelisib = compound: COc1cc2c(Oc3ccc4[nH]c(C)cc4c3F)ncnc2cc1OCCCN1CCCC1 [Cediranib] + Cc1nc(NC(=O)N2CCC[C@H]2C(N)=O)sc1-c1ccnc(C(C)(C)C(F)(F)F)c1 [Alpelisib] (partner 2 µM)
Method in brief: as §1

Cediranib + Phenformin = compound: COc1cc2c(Oc3ccc4[nH]c(C)cc4c3F)ncnc2cc1OCCCN1CCCC1 [Cediranib] + N=C(N)NC(=N)NCCc1ccccc1 [Phenformin] (partner 250 µM)
Method in brief: as §1

| Cell Line | relative viability ([1]; first compound 0.001 µM) | relative viability ([1]; first compound 0.003162 µM) | relative viability ([1]; first compound 0.01 µM) | relative viability ([1]; first compound 0.03162 µM) | relative viability ([1]; first compound 0.1 µM) | relative viability (Decitabine + Lapatinib; first compound 0.1265 µM) | relative viability (Decitabine + Lapatinib; first compound 0.4 µM) | relative viability (Decitabine + Lapatinib; first compound 1.265 µM) | relative viability (Decitabine + Lapatinib; first compound 4 µM) | relative viability (Cediranib + Alpelisib; first compound 0.04 µM) | relative viability (Cediranib + Alpelisib; first compound 0.1265 µM) | relative viability (Cediranib + Alpelisib; first compound 0.4 µM) | relative viability (Cediranib + Alpelisib; first compound 1.265 µM) | relative viability (Cediranib + Alpelisib; first compound 4 µM) | relative viability (Cediranib + Phenformin; first compound 0.04 µM) | relative viability (Cediranib + Phenformin; first compound 0.1265 µM) | relative viability (Cediranib + Phenformin; first compound 0.4 µM) | relative viability (Cediranib + Phenformin; first compound 1.265 µM) | relative viability (Cediranib + Phenformin; first compound 4 µM) | relative viability (Decitabine + Lapatinib; first compound 0.04 µM) |
| --- | --- | --- | --- | --- | --- | --- | --- | --- | --- | --- | --- | --- | --- | --- | --- | --- | --- | --- | --- | --- |
| PC-14 | 1.09 | 0.97 | 0.884 | 0.774 | 0.332 | 0.297 | 0.196 | 0.226 | 0.228 | 0.96 | 1 | 0.906 | 0.965 | 0.986 | 0.593 | 0.756 | 0.508 | 0.517 | 0.567 | – |
| NCI-H322M | 0.919 | 1.02 | 0.907 | 1.04 | 0.926 | 0.629 | 0.609 | 0.434 | 0.421 | 0.687 | 0.84 | 0.655 | 0.723 | 0.685 | 0.879 | 0.862 | 0.728 | 0.849 | 0.8 | 0.682 |
| NCI-H1666 | 1.03 | 0.957 | 0.779 | 0.842 | 0.703 | 0.66 | 0.488 | 0.56 | 0.476 | 1.04 | 0.995 | 0.875 | 0.924 | 0.962 | 0.564 | 0.488 | 0.524 | 0.548 | 0.579 | 0.622 |
| A-427 | 1.18 | 1.13 | 1.02 | 1.09 | 1.08 | 0.745 | 0.318 | 0.333 | 0.229 | 1.04 | – | 1.08 | 1.01 | 1.08 | 0.346 | – | 0.228 | 0.308 | 0.253 | 0.806 |
| NCI-H1651 | 1.07 | 0.978 | 0.994 | 0.6 | 0.332 | 0.977 | 0.708 | 0.676 | 0.747 | 1.04 | 1.03 | 1.02 | 1.01 | 0.805 | 0.321 | 0.327 | 0.277 | 0.321 | 0.311 | 0.799 |
| NCI-H1793 | 0.985 | 0.962 | 0.822 | 0.883 | 0.398 | 0.604 | 0.489 | 0.562 | 0.291 | 0.683 | 0.694 | 0.64 | – | 0.788 | 0.231 | 0.32 | 0.39 | – | 0.393 | 0.543 |
| NCI-H520 | 0.997 | 0.85 | 0.994 | 0.667 | 0.422 | 0.965 | 0.499 | 0.359 | 0.267 | 1.05 | – | 0.838 | 0.795 | 0.846 | 0.704 | 0.543 | 0.503 | 0.363 | 0.464 | 0.798 |
| 201T | 1.07 | 1.08 | 1.03 | 0.967 | 0.724 | 1.04 | 1.13 | 0.627 | 0.993 | 1.03 | 1.24 | 1.04 | 0.992 | 1.03 | 0.454 | 0.587 | 0.422 | 0.483 | 0.41 | 1.04 |
| NCI-H460 | 0.696 | 0.833 | 0.78 | 0.404 | 0.0417 | 1.06 | 0.277 | 0.18 | 0.114 | 0.66 | 0.525 | 0.418 | 0.526 | 0.336 | 0.528 | 0.576 | 0.527 | 0.512 | 0.56 | 0.902 |
| NCI-H596 | 1.13 | 1.04 | 1.07 | 1.12 | 0.732 | 1.06 | 0.576 | 0.954 | 0.783 | 0.489 | 0.481 | 0.478 | 0.509 | 0.577 | 0.723 | 0.703 | 0.722 | – | 0.718 | 1.12 |
| HARA | 1.02 | 0.981 | 0.79 | 1.02 | 0.828 | 0.935 | 0.443 | 0.432 | 0.296 | 0.844 | 1.14 | 0.837 | 0.857 | 1.01 | 0.331 | – | 0.391 | 0.429 | 0.454 | 0.737 |
| NCI-H2126 | 0.73 | 0.671 | 0.673 | 0.71 | 0.648 | 0.781 | 0.472 | 0.564 | 0.544 | 0.776 | 0.796 | 0.732 | 0.662 | 0.781 | 0.515 | 0.526 | 0.53 | 0.516 | 0.538 | 0.749 |
| HCC-827 | 0.968 | 0.983 | 0.978 | 1.02 | 0.892 | 0.168 | 0.187 | 0.187 | 0.2 | 1.06 | – | 0.957 | 0.985 | 0.926 | 0.412 | – | 0.389 | 0.385 | 0.356 | – |
| ABC-1 | 0.921 | 0.947 | 0.763 | 0.625 | 0.961 | 1.26 | 1.16 | 0.861 | 0.981 | 1.06 | 1.01 | 1.04 | – | 1.07 | 0.226 | 0.294 | 0.243 | – | 0.241 | 1.27 |
| NCI-H650 | 1.03 | 0.924 | 0.877 | 0.811 | 0.457 | 0.532 | 0.339 | 0.356 | 0.292 | 1.06 | 1.02 | 1.05 | 1.12 | 1.21 | 0.497 | 0.388 | 0.475 | 0.476 | 0.437 | 0.786 |
| BEN | 0.965 | 0.912 | 1.03 | 0.841 | 0.352 | 0.678 | 0.358 | 0.45 | 0.348 | 1.17 | 0.814 | 0.906 | 1.04 | 0.953 | 0.266 | – | 0.258 | 0.236 | 0.253 | 0.775 |
| NCI-H23 | 0.656 | 0.573 | 0.556 | 0.692 | 0.211 | 0.795 | 0.237 | 0.235 | 0.22 | 0.625 | – | 0.667 | 0.7 | 0.734 | 0.756 | – | 0.724 | 0.683 | 0.867 | 0.777 |

From the supplement of paper PMC10307832
